Data from US20180362485A1, “N-HYDROXYFORMAMIDE COMPOUNDS AND COMPOSITIONS COMPRISING THEM FOR USE AS BMP l, TLL1 AND/OR TLL2 INHIBITORS” (GlaxoSmithKline Intellectual Property (No. 2) Limited, priority 2015, published 2018).

Target: T1, human TLL2 (Homo sapiens, UniProt Q9Y6L7)
T1 construct: amino acids 26-1015 of human TLL2 (NM_012465); made in house
T1 sequence (Q9Y6L7 150-1015): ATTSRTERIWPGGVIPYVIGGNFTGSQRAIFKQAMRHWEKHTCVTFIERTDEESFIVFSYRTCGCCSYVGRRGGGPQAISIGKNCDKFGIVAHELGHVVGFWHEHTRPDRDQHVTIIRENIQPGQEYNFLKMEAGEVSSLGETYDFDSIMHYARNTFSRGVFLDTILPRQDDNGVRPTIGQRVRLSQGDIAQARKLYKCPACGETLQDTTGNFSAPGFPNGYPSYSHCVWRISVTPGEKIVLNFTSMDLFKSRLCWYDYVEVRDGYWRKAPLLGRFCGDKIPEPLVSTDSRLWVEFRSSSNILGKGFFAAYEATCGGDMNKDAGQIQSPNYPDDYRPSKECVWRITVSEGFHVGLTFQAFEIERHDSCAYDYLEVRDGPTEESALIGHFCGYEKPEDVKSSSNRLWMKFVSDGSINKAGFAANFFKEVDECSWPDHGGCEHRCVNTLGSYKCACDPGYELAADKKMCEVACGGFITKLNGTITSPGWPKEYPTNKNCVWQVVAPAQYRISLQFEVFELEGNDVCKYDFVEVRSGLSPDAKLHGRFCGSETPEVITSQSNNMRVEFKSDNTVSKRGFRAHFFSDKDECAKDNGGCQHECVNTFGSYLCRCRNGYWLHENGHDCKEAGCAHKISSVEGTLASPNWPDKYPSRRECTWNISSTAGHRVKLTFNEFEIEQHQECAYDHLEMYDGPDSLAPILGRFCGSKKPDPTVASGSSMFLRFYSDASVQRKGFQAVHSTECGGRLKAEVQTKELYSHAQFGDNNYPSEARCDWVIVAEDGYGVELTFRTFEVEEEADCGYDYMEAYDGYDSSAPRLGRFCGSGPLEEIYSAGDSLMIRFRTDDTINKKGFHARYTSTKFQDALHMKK
Assay: Enzyme inhibition assay for human TLL2
Type: biochemical
Settings: 18 nM TLL2, 5 μM promyostatin peptide substrate; read-out: pIC50, TLL2 enzyme inhibition assay (converted)
Description: Buffer components are purchased from Sigma-Aldrich (St. Louis, Mo.) or an equivalent supplier. The promyostatin peptide substrate is custom synthesized by American Peptide Company (Sunnyvale, Calif.) using the myostatin protein sequence (Uniprot accession number 014793) surrounding the cleavage site reviewed in Hopkins, D. R., et al., 2007 Matrix Biology, 26, 508-523. The procollagen peptide substrate used in the high enzyme BMP1 cleavage assay is custom synthesized by 21st Century Biochemicals (Marlboro, Mass.) using the procollagen Iα protein sequence (Uniprot accession number P02452) surrounding the cleavage site reviewed in Hopkins, D. R., et al., 2007 Matrix Biology, 26, 508-523.
The DNA sequence encoding amino acids 26-1015 of human TLL2 (NM_012465) is PCR amplified from DNA template with the human RAGE signal sequence at the N-terminus and Avi-6×His epitope tags at the C-terminus ([…]). […]
Inhibition of human TLL1 and TLL2 recombinant enzymes is measured in 10 ul endpoint assays in 384-well format using the same promyostatin peptide substrate employed in the above Enzyme Inhibition Assay for human BMP1. […] TLL1 and TLL2 reactions are quenched with 5 μl of 0.5 M EDTA and plates are read on a ViewLux (Perkin Elmer) multilabel plate reader using a 480 nm excitation filter and 540 nm emission filter. […]

## CCCCC[C@@H](C(=O)NCNC(=O)c1ccc(-c2ccc(C(=O)O)cc2)o1)[C@@H](CC)N(O)C=O [WO2015/104684 Example 71, 4-(5-((((R)-2-((R)-1-(N-hydroxyformamido)propyl)heptanamido)methyl)carbamoyl)furan-2-yl)benzoic acid]
  IC50: < 794 nM
